Source: ChEMBL document CHEMBL4043145, “Pyridine-pyrimidine amides that prevent HGF-induced epithelial scattering by two distinct mechanisms” (Bioorg Med Chem Lett, 2017)

Columns and labels:
A2780 [1] = assay: Induction of apoptosis in human A2780 cells assessed as late apoptotic cells at 300 nM by 7-AAD/Annexin staining-based assay (reference value: 1.2 to 2.2%); format: functional
MFE-296 [2] = assay: Induction of apoptosis in human MFE296 cells assessed as viable cells at 1000 nM by 7-AAD/Annexin staining-based assay (reference value: 90.9 to 94.4%); format: functional; conditions: read-out: Activity
A2780 [3] = assay: Induction of apoptosis in human A2780 cells assessed as nuclear debris at 100 nM by 7-AAD/Annexin staining-based assay (reference value: 0.3 to 1.1%); format: functional
MCF7 [4] = assay: Induction of apoptosis in human MCF7 cells assessed as early apoptotic cells at 1000 nM by 7-AAD/Annexin staining-based assay (reference value: 2 to 2.7%); format: functional
MCF7 [5] = assay: Antiproliferative activity against human MCF7 cells at 10 uM relative to control; format: functional, cell-based
PC-3 [6] = assay: Induction of apoptosis in human p53-null PC3 cells assessed as late apoptotic cells at 300 nM by 7-AAD/Annexin staining-based assay (reference value: 0.4 to 1.6%); format: functional
A2780 [7] = assay: Cell cycle arrest in human A2780 cells assessed as accumulation at G1 phase at 1000 nM (reference value: 55.26 to 55.66%); format: functional
MFE-296 [8] = assay: Induction of apoptosis in human MFE296 cells assessed as late apoptotic cells at 300 nM by 7-AAD/Annexin staining-based assay (reference value: 3.6 to 6.6%); format: functional
PC-3 [9] = assay: Induction of apoptosis in human p53-null PC3 cells assessed as early apoptotic cells at 1000 nM by 7-AAD/Annexin staining-based assay (reference value: 0.6 to 1.4%); format: functional
MFE-296 [10] = assay: Induction of apoptosis in human MFE296 cells assessed as viable cells at 300 nM by 7-AAD/Annexin staining-based assay (reference value: 90.9 to 94.4%); format: functional; conditions: read-out: Activity
MCF7 [11] = assay: Induction of apoptosis in human MCF7 cells assessed as late apoptotic cells at 300 nM by 7-AAD/Annexin staining-based assay (reference value: 1 to 2.1%); format: functional
PC-3 [12] = assay: Induction of apoptosis in human p53-null PC3 cells assessed as late apoptotic cells at 100 nM by 7-AAD/Annexin staining-based assay (reference value: 0.4 to 1.6%); format: functional
MFE-280 [13] = assay: Induction of apoptosis in human MFE280 cells assessed as viable cells at 100 nM by 7-AAD/Annexin staining-based assay (reference value: 84.9 to 87.7%); format: functional; conditions: read-out: Activity
MFE-280 [14] = assay: Induction of apoptosis in human MFE280 cells assessed as viable cells at 1000 nM by 7-AAD/Annexin staining-based assay (reference value: 84.9 to 87.7%); format: functional; conditions: read-out: Activity
PC-3 [15] = assay: Induction of apoptosis in human p53-null PC3 cells assessed as viable cells at 100 nM by 7-AAD/Annexin staining-based assay (reference value: 96.5 to 98.6%); format: functional; conditions: read-out: Activity
MFE-296 [16] = assay: Induction of apoptosis in human MFE296 cells assessed as early apoptotic cells at 1000 nM by 7-AAD/Annexin staining-based assay (reference value: 1.5 to 2.1%); format: functional
T47D [17] = assay: Induction of apoptosis in human T47D cells assessed as late apoptotic cells at 300 nM by 7-AAD/Annexin staining-based assay (reference value: 3 to 13.4%); format: functional
MCF7 [18] = assay: Induction of apoptosis in human MCF7 cells assessed as early apoptotic cells at 100 nM by 7-AAD/Annexin staining-based assay (reference value: 2 to 2.7%); format: functional
A2780 [19] = assay: Induction of apoptosis in human A2780 cells assessed as late apoptotic cells at 1000 nM by 7-AAD/Annexin staining-based assay (reference value: 1.2 to 2.2%); format: functional
A2780 [20] = assay: Cell cycle arrest in human A2780 cells assessed as accumulation at G2/M phase at 1000 nM (reference value: 19.42 to 20.43%); format: functional
A2780 [21] = assay: Induction of apoptosis in human A2780 cells assessed as nuclear debris at 1000 nM by 7-AAD/Annexin staining-based assay (reference value: 0.3 to 1.1%); format: functional
MCF7 [22] = assay: Induction of apoptosis in human MCF7 cells assessed as late apoptotic cells at 100 nM by 7-AAD/Annexin staining-based assay (reference value: 1 to 2.1%); format: functional
MCF7 [23] = assay: Induction of apoptosis in human MCF7 cells assessed as viable cells at 100 nM by 7-AAD/Annexin staining-based assay (reference value: 92.6 to 96.8%); format: functional; conditions: read-out: Activity
A2780 [24] = assay: Cell cycle arrest in human A2780 cells assessed as accumulation at G1 phase at 300 nM (reference value: 55.26 to 55.66%); format: functional
PC-3 [25] = assay: Induction of apoptosis in human p53-null PC3 cells assessed as nuclear debris at 100 nM by 7-AAD/Annexin staining-based assay (reference value: 0.1 to 0.5%); format: functional
MCF7 [26] = assay: Induction of apoptosis in human MCF7 cells assessed as nuclear debris at 1000 nM by 7-AAD/Annexin staining-based assay (reference value: 0.2 to 3%); format: functional
T47D [27] = assay: Induction of apoptosis in human T47D cells assessed as viable cells at 300 nM by 7-AAD/Annexin staining-based assay (reference value: 74.5 to 94.5%); format: functional; conditions: read-out: Activity
T47D [28] = assay: Induction of apoptosis in human T47D cells assessed as late apoptotic cells at 1000 nM by 7-AAD/Annexin staining-based assay (reference value: 3 to 13.4%); format: functional
PC-3 [29] = assay: Cell cycle arrest in human p53-null PC3 cells assessed as accumulation at G1 phase at 1000 nM (reference value: 50.77 to 51.16%); format: functional
T47D [30] = assay: Cell cycle arrest in human T47D cells assessed as accumulation at G2/M phase at 300 nM (reference value: 20.58 to 28.8%); format: functional
PC-3 [31] = assay: Induction of apoptosis in human p53-null PC3 cells assessed as viable cells at 300 nM by 7-AAD/Annexin staining-based assay (reference value: 96.5 to 98.6%); format: functional; conditions: read-out: Activity
MFE-296 [32] = assay: Induction of apoptosis in human MFE296 cells assessed as early apoptotic cells at 300 nM by 7-AAD/Annexin staining-based assay (reference value: 1.5 to 2.1%); format: functional
T47D [33] = assay: Induction of apoptosis in human T47D cells assessed as early apoptotic cells at 1000 nM by 7-AAD/Annexin staining-based assay (reference value: 1.6 to 4.3%); format: functional
MFE-280 [34] = assay: Cell cycle arrest in human MFE280 cells assessed as accumulation at S phase at 100 nM (reference value: 14.14 to 15.66%); format: functional
MFE-296 [35] = assay: Induction of apoptosis in human MFE296 cells assessed as early apoptotic cells at 100 nM by 7-AAD/Annexin staining-based assay (reference value: 1.5 to 2.1%); format: functional
T47D [36] = assay: Induction of apoptosis in human T47D cells assessed as viable cells at 1000 nM by 7-AAD/Annexin staining-based assay (reference value: 74.5 to 94.5%); format: functional; conditions: read-out: Activity

Compound | Activity (A2780 [1]) [%] | viability at 1 µM (MFE-296 [2]) [%] | Activity (A2780 [3]) [%] | Activity (MCF7 [4]) [%] | Activity (PC-3 [6]) [%] | Activity (MFE-296 [8]) [%] | Activity (PC-3 [9]) [%] | viability at 0.3 µM (MFE-296 [10]) [%] | Activity (MCF7 [11]) [%] | Activity (PC-3 [12]) [%] | viability at 0.1 µM (MFE-280 [13]) [%] | viability at 1 µM (MFE-280 [14]) [%] | viability at 0.1 µM (PC-3 [15]) [%] | Activity (MFE-296 [16]) [%] | Activity (T47D [17]) [%] | Activity (MCF7 [18]) [%] | Activity (A2780 [19]) [%] | Activity (A2780 [21]) [%] | Activity (MCF7 [22]) [%] | viability at 0.1 µM (MCF7 [23]) [%] | also measured
O=C(Nc1ccc(-c2cccc(Cl)c2)cn1)c1cncnc1 | 3.5 | 84.3 | 0.5 | 3.3 | 0.8 | 8.2 | 1.3 | 86.5 | 3.1 | 0.4 | 86.2 | 85.1 | 98.9 | 3.7 | 3.8 | 3.3 | 4.1 | 1.4 | 1.9 | 94.4 | EC50 (MCF7 [5]): 29 nM; Activity (A2780 [7]): 13.03%; Activity (A2780 [20]): 77.58%; Activity (A2780 [24]): 24.74%; Activity (PC-3 [25]): 0.1%; Activity (MCF7 [26]): 0.3%; viability at 0.3 µM (T47D [27]): 86.5%; Activity (T47D [28]): 4.5%; Activity (PC-3 [29]): 5.07%; Activity (T47D [30]): 22.28%; viability at 0.3 µM (PC-3 [31]): 98.2%; Activity (MFE-296 [32]): 2.8%; Activity (T47D [33]): 12%; Activity (MFE-280 [34]): 18.71%; Activity (MFE-296 [35]): 2.1%; viability at 1 µM (T47D [36]): 82.9%
CN[C@@H]1C[C@H]2O[C@@](C)([C@@H]1OC)n1c3ccccc3c3c4c(c5c6ccccc6n2c5c31)C(=O)NC4 [STAUROSPORINE] | 8.5 | 20.2 | 0.4 | 3.5 | 0.2 | 24.4 | 1.3 | 57.2 | 7.9 | 0.7 | 51.1 | 47.5 | 98 | 4.4 | 3.5 | 3.4 | 32.8 | 4.3 | 3.1 | 93 | Activity (PC-3 [25]): 0.1%; Activity (MCF7 [26]): 9.6%; viability at 0.3 µM (T47D [27]): 90.6%; Activity (T47D [28]): 4.8%; viability at 0.3 µM (PC-3 [31]): 98.6%; Activity (MFE-296 [32]): 6.8%; Activity (T47D [33]): 6.2%; Activity (MFE-296 [35]): 7.5%; viability at 1 µM (T47D [36]): 88.4%
